Laboratory results: US8530487B1 (priority 2009, dated 2013)
Like-named read-outs stand apart in the source and are kept apart here.

Biological target: human TRPA1 (Homo sapiens, UniProt O75762)
Experiment: cell-based

Sequence of human TRPA1 (O75762 whole entry): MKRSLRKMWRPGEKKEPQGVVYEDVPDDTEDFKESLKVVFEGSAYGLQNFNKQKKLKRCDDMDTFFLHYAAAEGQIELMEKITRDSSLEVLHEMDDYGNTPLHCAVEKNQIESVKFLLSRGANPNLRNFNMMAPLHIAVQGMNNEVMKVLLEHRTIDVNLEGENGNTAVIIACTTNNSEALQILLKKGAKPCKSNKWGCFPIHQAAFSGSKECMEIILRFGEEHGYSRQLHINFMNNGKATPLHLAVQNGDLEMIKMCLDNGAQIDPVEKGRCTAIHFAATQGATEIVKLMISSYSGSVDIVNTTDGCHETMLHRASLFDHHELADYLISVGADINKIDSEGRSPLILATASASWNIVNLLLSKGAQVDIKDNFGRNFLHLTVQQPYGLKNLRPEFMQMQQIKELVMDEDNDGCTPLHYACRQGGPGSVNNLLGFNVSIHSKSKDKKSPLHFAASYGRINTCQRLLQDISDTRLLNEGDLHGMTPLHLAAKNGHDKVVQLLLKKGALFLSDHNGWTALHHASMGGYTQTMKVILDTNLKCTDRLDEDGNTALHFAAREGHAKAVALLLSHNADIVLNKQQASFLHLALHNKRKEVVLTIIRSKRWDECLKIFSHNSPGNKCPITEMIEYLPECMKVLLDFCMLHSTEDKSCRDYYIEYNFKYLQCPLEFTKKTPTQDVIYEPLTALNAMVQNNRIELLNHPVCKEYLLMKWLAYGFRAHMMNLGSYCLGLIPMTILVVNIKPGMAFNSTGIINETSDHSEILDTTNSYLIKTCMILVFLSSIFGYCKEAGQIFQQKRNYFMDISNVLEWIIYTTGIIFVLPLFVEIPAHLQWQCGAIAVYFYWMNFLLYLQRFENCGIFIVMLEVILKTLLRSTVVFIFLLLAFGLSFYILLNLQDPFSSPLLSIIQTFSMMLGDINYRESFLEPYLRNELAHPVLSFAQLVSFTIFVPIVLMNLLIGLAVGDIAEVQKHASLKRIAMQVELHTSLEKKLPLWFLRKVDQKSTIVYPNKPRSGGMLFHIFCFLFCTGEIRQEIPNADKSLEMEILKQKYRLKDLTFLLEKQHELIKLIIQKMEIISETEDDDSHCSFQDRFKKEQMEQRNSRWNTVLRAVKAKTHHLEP

Row | IC50 (read-out: Activity (IC50)) | SMILES | IC50
1 | 100 to 500 nM | O=C1NC2=C(C(=O)c3ccccc32)C(c2cc(O)ccc2Br)N1 (stereo not shown) [Compound 102] | 
2 | > 1000 nM | O=C1NC2=C(C(=O)c3c(O)cccc32)C(c2cc(O)ccc2Br)N1 (stereo not shown) [Compound 104] | 
3 | > 1000 nM | O=C1NC2=C(C(=O)c3cc(O)ccc32)C(c2cc(O)ccc2Br)N1 (stereo not shown) [Compound 105] | 
4 | > 1000 nM | CN1C(=S)NC2=C(C(=O)c3ccccc32)C1c1ccccc1 (stereo not shown) [Compound 303] | 
5 | > 1000 nM | CN1C(=S)N(C)C(c2ccccc2)C2=C1c1ccccc1C2=O (stereo not shown) [Compound 304] | 
6 | < 100 nM | C=CCOc1cccc(C2NC(=S)N(C)C3=C2C(=O)c2ccccc23)c1 (stereo not shown) [Compound 306] | 
7 | > 1000 nM | CN1C(=S)NC2=C(C(=O)c3ccccc32)C1c1cccc(C#N)c1 (stereo not shown) [Compound 309] | 
8 | < 100 nM | CCOc1cccc(C2NC(=S)N(C)C3=C2C(=O)c2ccccc23)c1 (stereo not shown) [Compound 311] | 
9 | < 100 nM | C=CCC(F)c1cccc(C2NC(=O)NC3=C2C(=O)c2ccccc23)c1 (stereo not shown) [Compound 402] | 
10 | < 100 nM | C=CCOc1cc(F)cc(C2NC(=O)NC3=C2C(=O)c2ccccc23)c1 (stereo not shown) [Compound 403] | 
11 | < 100 nM | CCCOc1cc(F)cc(C2NC(=O)NC3=C2C(=O)c2ccccc23)c1F (stereo not shown) [Compound 404] | 
12 | < 100 nM | C=CCOc1cc(Cl)cc(C2NC(=O)NC3=C2C(=O)c2ccccc23)c1 (stereo not shown) [Compound 406] | 
13 | < 100 nM | CCOc1cccc(C2NC(=O)NC3=C2C(=O)c2ccccc23)c1F (stereo not shown) [Compound 409] | 
14 | 100 to 500 nM | CCOc1cccc(C2NC(=O)NC3=C2C(=O)c2ccccc23)c1 (stereo not shown) [Compound 412] | 
15 | 100 to 500 nM | O=C1NC2=C(C(=O)c3ccccc32)C(c2cccc(OC(F)F)c2)N1 (stereo not shown) [Compound 414] | 
16 | 100 to 500 nM | CCOc1ccc(F)c(C2NC(=O)NC3=C2C(=O)c2ccccc23)c1F (stereo not shown) [Compound 420] | 
17 | 100 to 500 nM | C=CCOc1cccc(C2NC(=O)NC3=C2C(=O)c2ccccc23)c1C (stereo not shown) [Compound 421] | 
18 | 100 to 500 nM | O=C1NC2=C(C(=O)c3ccccc32)C(c2cccc(OCC3CC3)c2)N1 (stereo not shown) [Compound 422] | 
19 | > 1000 nM | COc1ccc(Cl)c(C2NC(=O)NC3=C2C(=O)c2ccccc23)c1 (stereo not shown) [Compound 429] | 
20 | > 1000 nM | N#Cc1cccc(C2NC(=O)NC3=C2C(=O)c2ccccc23)c1 (stereo not shown) [Compound 430] | 
21 | > 1000 nM | O=C1NC2=C(C(=O)c3ccccc32)C(c2cccc(Cl)c2)N1 (stereo not shown) [Compound 431] | 

Row | IC50 (read-out: Activity (IC50)) | SMILES | IC50
22 | > 1000 nM | COc1ccc(F)c(C2NC(=O)NC3=C2C(=O)c2ccccc23)c1 (stereo not shown) [Compound 432] | 
23 | > 1000 nM | COc1cccc(C2NC(=O)NC3=C2C(=O)c2ccccc23)c1OC (stereo not shown) [Compound 438] | 
24 | > 1000 nM | O=C1NC2=C(C(=O)c3ccccc32)C(c2cccc3c2OCO3)N1 (stereo not shown) [Compound 439] | 
25 | > 1000 nM | O=C1NC2=C(C(=O)c3ccccc32)C(c2cccc3c2OC(F)(F)O3)N1 (stereo not shown) [Compound 440] | 
26 | > 1000 nM | O=C1NC2=C(C(=O)c3ccccc32)C(c2ccc(Cl)cc2)N1 (stereo not shown) [Compound 442] | 
27 | > 1000 nM | O=C1NC2=C(C(=O)c3ccccc32)C(c2cccc(Cl)c2Cl)N1 (stereo not shown) [Compound 446] | 
28 | > 1000 nM | O=C1NC2=C(C(=O)c3ccccc32)C(c2ccccc2F)N1 (stereo not shown) [Compound 447] | 
29 | > 1000 nM | O=C1NC2=C(C(=O)c3ccccc32)C(c2cc(C(F)(F)F)ccc2Cl)N1 (stereo not shown) [Compound 448] | 
30 | > 1000 nM | O=C1NC2=C(C(=O)c3ccccc32)C(c2c(Cl)cccc2Cl)N1 (stereo not shown) [Compound 449] | 
31 | > 1000 nM | CC(F)(F)Oc1cccc(C2NC(=O)NC3=C2C(=O)c2ccccc23)c1 (stereo not shown) [Compound 450] | 
32 | > 1000 nM | O=C1NC2=C(C(=O)c3ccccc32)C(c2cccc(C(F)(F)F)c2)N1 (stereo not shown) [Compound 452] | 
33 | > 1000 nM | C=CCOc1cccc(C2NC(=O)NC3=C2C(=O)c2ccccc23)c1OC (stereo not shown) [Compound 455] | 
34 | > 1000 nM | O=C1NC2=C(C(=O)c3ccccc32)C(c2ccc3c(c2)OCO3)N1 (stereo not shown) [Compound 457] | 
35 | > 1000 nM | COc1cc(OC)cc(C2NC(=O)NC3=C2C(=O)c2ccccc23)c1 (stereo not shown) [Compound 458] | 
36 | > 1000 nM | O=C1NC2=C(C(=O)c3ccccc32)C(c2cccc(OC(=O)C3CC3)c2)N1 (stereo not shown) [Compound 459] | 
37 | 100 to 500 nM | COCCOc1cccc(C2NC(=O)NC3=C2C(=O)c2ccccc23)c1 (stereo not shown) [Compound 462] | 
38 | > 1000 nM | CCOc1cncc(C2NC(=O)NC3=C2C(=O)c2ccccc23)c1 (stereo not shown) [Compound 503] | 
39 | > 1000 nM | CCn1c(=O)oc2c(C3NC(=O)NC4=C3C(=O)c3ccccc34)cccc21 (stereo not shown) [Compound 506] | 
40 | < 100 nM | CCOc1cccc(C2NC(=O)N(CC#N)C3=C2C(=O)c2ccccc23)c1 (stereo not shown) [Compound 601] | 
41 | 100 to 500 nM | CCOc1cccc(C2NC(=O)NC3=C2C(=O)c2ccccc23)c1 (stereo not shown) [Compound 602] | 
42 | < 100 nM | CCOc1cccc(C2NC(=O)N(C)C3=C2C(=O)c2ccccc23)c1 (stereo not shown) [Compound 603] | 

The remaining lines, values behind:

Row | SMILES | IC50 (read-out: Activity (IC50)) | IC50
43 | O=C1C2=C(NC(=S)NC2c2ccccc2O)c2ccccc21 (stereo not shown) [Compound 15] |  | < 100 nM
44 | O=C1C2=C(NC(=S)NC2c2cccnc2)c2ccccc21 (stereo not shown) [Compound 33] |  | 500 to 1000 nM
45 | N#Cc1ccc(C2NC(=S)NC3=C2C(=O)c2ccccc23)cc1 (stereo not shown) [Compound 35] |  | 500 to 1000 nM
46 | COc1ccccc1C1NC(=S)NC2=C1C(=O)c1ccccc12 (stereo not shown) [Compound 40] |  | > 1000 nM
47 | O=C1NC2=C(C(=O)c3c(Cl)cccc32)C(c2cc(O)ccc2Br)N1 (stereo not shown) [Compound 101] | < 100 nM | 
48 | O=C1NC2=C(C(=O)c3cc(Cl)ccc32)C(c2cc(O)ccc2Br)N1 (stereo not shown) [Compound 103] | > 1000 nM | 
49 | O=C1NC2=C(C(=O)c3ccc(O)cc32)C(c2cc(O)ccc2Br)N1 (stereo not shown) [Compound 106] | > 1000 nM | 
50 | Cc1ccc2c(c1)C(=O)C1=C2NC(=O)NC1c1cc(O)ccc1Br (stereo not shown) [Compound 107] | 500 to 1000 nM | 
51 | O=C1C2=C(NC(=S)NC2c2ccccc2)c2ccccc21 (stereo not shown) [Compound 201] |  | < 100 nM
52 | O=C1C2=C(NC(=S)NC2c2ccccc2)c2ccc(O)cc21 (stereo not shown) [Compound 203] |  | > 1000 nM
53 | O=C1C2=C(NC(=S)NC2c2ccccc2)c2ccccc21 (stereo not shown) [Compound 301] | < 100 nM | 
54 | CN1C(=S)NC(c2ccccc2)C2=C1c1ccccc1C2=O (stereo not shown) [Compound 302] | < 100 nM | 
55 | C=CCOc1cccc(C2NC(=S)NC3=C2C(=O)c2ccccc23)c1 (stereo not shown) [Compound 305] | < 100 nM | 
56 | N#Cc1cccc(C2NC(=S)NC3=C2C(=O)c2ccccc23)c1 (stereo not shown) [Compound 307] | < 100 nM | 
57 | CN1C(=S)NC(c2cccc(C#N)c2)C2=C1c1ccccc1C2=O (stereo not shown) [Compound 308] | < 100 nM | 
58 | CCOc1cccc(C2NC(=S)NC3=C2C(=O)c2ccccc23)c1 (stereo not shown) [Compound 310] | < 100 nM | 
59 | CN1C(=S)NC(c2ccccc2)C2=C1c1cccc(O)c1C2=O (stereo not shown) [Compound 313] | > 1000 nM | 
60 | C=CCOc1cccc(C2NC(=O)NC3=C2C(=O)c2ccccc23)c1F (stereo not shown) [Compound 401] | < 100 nM | 
61 | C=CCOc1cccc(C2NC(=O)NC3=C2C(=O)c2ccccc23)c1 (stereo not shown) [Compound 405] | < 100 nM | 
62 | CCCOc1cccc(C2NC(=O)NC3=C2C(=O)c2ccccc23)c1 (stereo not shown) [Compound 407] | < 100 nM | 
63 | CCCCOc1cccc(C2NC(=O)NC3=C2C(=O)c2ccccc23)c1 (stereo not shown) [Compound 408] | < 100 nM | 
64 | C=CCOc1cccc(C2NC(=O)NC3=C2C(=O)c2ccccc23)c1Cl (stereo not shown) [Compound 411] | < 100 nM | 
65 | O=C1NC2=C(C(=O)c3ccccc32)C(c2cccc(OCC(F)(F)F)c2)N1 (stereo not shown) [Compound 413] | 100 to 500 nM | 
66 | C=CCOc1ccc(Cl)c(C2NC(=O)NC3=C2C(=O)c2ccccc23)c1 (stereo not shown) [Compound 415] | 100 to 500 nM | 
67 | C=CCOc1ccc(F)c(C2NC(=O)NC3=C2C(=O)c2ccccc23)c1 (stereo not shown) [Compound 417] | 100 to 500 nM | 

Row | SMILES | IC50 (read-out: Activity (IC50)) | IC50
68 | O=C1NC2=C(C(=O)c3ccccc32)C(c2cccc(OCC3CC3)c2Cl)N1 (stereo not shown) [Compound 419] | 100 to 500 nM | 
69 | CCOc1cccc(C2NC(=O)NC3=C2C(=O)c2ccccc23)c1Cl (stereo not shown) [Compound 423] | 500 to 1000 nM | 
70 | O=C1NC2=C(C(=O)c3ccccc32)C(c2ccccc2Cl)N1 (stereo not shown) [Compound 426] | 500 to 1000 nM | 
71 | CCCCc1cccc(C2NC(=O)NC3=C2C(=O)c2ccccc23)c1 (stereo not shown) [Compound 427] | 500 to 1000 nM | 
72 | COc1cccc(C2NC(=O)NC3=C2C(=O)c2ccccc23)c1Cl (stereo not shown) [Compound 428] | > 1000 nM | 
73 | COc1ccc(Br)c(C2NC(=O)NC3=C2C(=O)c2ccccc23)c1 (stereo not shown) [Compound 433] | > 1000 nM | 
74 | O=C1NC2=C(C(=O)c3ccccc32)C(c2ccccc2O)N1 (stereo not shown) [Compound 435] | > 1000 nM | 
75 | O=C1NC2=C(C(=O)c3ccccc32)C(c2cccc(O)c2)N1 (stereo not shown) [Compound 436] | > 1000 nM | 
76 | CC(C)Oc1cccc(C2NC(=O)NC3=C2C(=O)c2ccccc23)c1 (stereo not shown) [Compound 437] | > 1000 nM | 
77 | COc1ccc(OC)c(C2NC(=O)NC3=C2C(=O)c2ccccc23)c1 (stereo not shown) [Compound 441] | > 1000 nM | 
78 | CCN(C(C)=O)c1cccc(C2NC(=O)NC3=C2C(=O)c2ccccc23)c1 (stereo not shown) [Compound 443] | > 1000 nM | 
79 | Nc1cccc(C2NC(=O)NC3=C2C(=O)c2ccccc23)c1 (stereo not shown) [Compound 444] | > 1000 nM | 
80 | CN(C)c1cccc(C2NC(=O)NC3=C2C(=O)c2ccccc23)c1 (stereo not shown) [Compound 445] | > 1000 nM | 
81 | O=C1NC2=C(C(=O)c3ccccc32)C(c2cccc(OC(F)(F)C(F)F)c2)N1 (stereo not shown) [Compound 451] | > 1000 nM | 
82 | COCc1cccc(C2NC(=O)NC3=C2C(=O)c2ccccc23)c1 (stereo not shown) [Compound 453] | > 1000 nM | 
83 | C=CCOc1cccc(C2NC(=O)NC3=C2C(=O)c2ccccc23)c1C(F)(F)F (stereo not shown) [Compound 454] | > 1000 nM | 
84 | C=CCOc1cccc(C2NC(=O)NC3=C2C(=O)c2ccccc23)c1O (stereo not shown) [Compound 456] | > 1000 nM | 
85 | CCCCCOc1cccc(C2NC(=O)NC3=C2C(=O)c2ccccc23)c1 (stereo not shown) [Compound 460] | > 1000 nM | 
86 | O=C1NC2=C(C(=O)c3ccccc32)C(c2cccc(OCC3CCC3)c2)N1 (stereo not shown) [Compound 461] | > 1000 nM | 
87 | O=C1NC2=C(C(=O)c3ccccc32)C(c2cccnc2)N1 (stereo not shown) [Compound 501] | > 1000 nM | 
88 | O=C1NC2=C(C(=O)c3ccccc32)C(c2cccs2)N1 (stereo not shown) [Compound 502] | > 1000 nM | 
89 | CCOc1cccc(C2NC(=O)NC3=C2C(=O)c2ccccc23)n1 (stereo not shown) [Compound 504] | 500 to 1000 nM | 
90 | O=C1NC2=C(C(=O)c3ccccc32)C(c2cccc3[nH]c(=O)oc23)N1 (stereo not shown) [Compound 505] | > 1000 nM | 
91 | CCOc1cccc(C2NC(=O)N(CC)C3=C2C(=O)c2ccccc23)c1 (stereo not shown) [Compound 604] | < 100 nM | 
